Results reported in PubChem BioAssay AID248 (DTP/NCI, 2004).
Where “and” joins values, the source holds several entries; their conditions need not be identical. Identical values can stand only once. Toxic doses and inconclusive results are not listed. Rule as the data show it: active = T/C of 150% or more; inactive = T/C below 125%.

System: L1210 leukemia ip in BDF1 mice, survival T/C
Assay: NCI In Vivo Anticancer Drug Screen. Data for tumor model L1210 Leukemia (intraperitoneal) in B6D2F1 (BDF1) mice
Conditions: endpoint: mean survival time, higher = longer survival
Method in brief: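 Value reflects the ratio of survival in compound-treated mice to survival in vehicle-treated controls, with both groups carrying the same transplanted tumor.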

[1] = dose: 50.0 mg/kg/injection, schedule: Q01DX001 (ip), vehicle: saline
[2] = dose: 100.0 mg/kg/injection, schedule: Q01DX001 (ip), vehicle: saline
[3] = dose: 200.0 mg/kg/injection, schedule: Q01DX001 (ip), vehicle: saline
[4] = dose: 100.0 mg/kg/injection, schedule: Q01DX009 (ip), vehicle: Klucel (hydroxypropylcellulose) (HPC)
[5] = dose: 100.0 mg/kg/injection, schedule: Q04DX003 (ip), vehicle: Klucel (hydroxypropylcellulose) (HPC)
[6] = dose: 200.0 mg/kg/injection, schedule: Q01DX009 (ip), vehicle: Klucel (hydroxypropylcellulose) (HPC)
[7] = dose: 200.0 mg/kg/injection, schedule: Q04DX003 (ip), vehicle: Klucel (hydroxypropylcellulose) (HPC)
[8] = dose: 400.0 mg/kg/injection, schedule: Q01DX009 (ip), vehicle: Klucel (hydroxypropylcellulose) (HPC)
[9] = dose: 400.0 mg/kg/injection, schedule: Q04DX003 (ip), vehicle: Klucel (hydroxypropylcellulose) (HPC)
[10] = dose: 400.0 mg/kg/injection, schedule: Q01DX001 (ip), vehicle: saline
[11] = dose: 100.0 mg/kg/injection, schedule: Q04DX003 (ip), vehicle: saline with Tween-80
[12] = dose: 200.0 mg/kg/injection, schedule: Q04DX003 (ip), vehicle: saline with Tween-80
[13] = dose: 400.0 mg/kg/injection, schedule: Q04DX003 (ip), vehicle: saline with Tween-80
[14] = dose: 25.0 mg/kg/injection, schedule: Q04DX002 (ip), vehicle: saline
[15] = dose: 100.0 mg/kg/injection, schedule: Q01DX009 (ip), vehicle: saline with Tween-80

Measured: T/C

C=C(C)CCc1ccccc1
inactive: [1] 102 % of control | [2] 104 % of control | [3] 96 % of control

[Cl][Sn]([c]1cccc2ccccc12)([c]1cccc2ccccc12)[c]1cccc2ccccc12
inactive: dose: 100.0 mg/kg/injection, schedule: Q04DX002 (ip), vehicle: saline with Tween-80 98 % of control | dose: 200.0 mg/kg/injection, schedule: Q04DX002 (ip), vehicle: saline with Tween-80 102 % of control | dose: 400.0 mg/kg/injection, schedule: Q04DX002 (ip), vehicle: saline with Tween-80 87 % of control

C1CC2CC2CCC2CC12 (stereo unspecified)
inactive: [4] 104 % of control | [5] 101 % of control | [6] 95 % of control | [7] 95 % of control | [8] 102 % of control | [9] 101 % of control

O=[N+]([O-])c1cccc(N(CCO)CCO)c1
inactive: [1] 96 % of control | [2] 106 % of control | [3] 93 % of control | [10] 100 % of control

CC1(C)COC(C)(C)C(=O)O1
inactive: [5] 106 % of control | [7] 97 % of control

O=C(Nc1ccccc1)Nc1ccc([N+](=O)[O-])cc1O
inactive: [11] 103 % of control | [12] 113 % of control | [13] 100 % of control

c1ccc(C2CC3c4ccccc4C2c2cccc[n+]23)nc1 (stereo unspecified)
inactive: dose: 100.0 mg/kg/injection, schedule: Q01DX001 (ip), vehicle: Klucel (hydroxypropylcellulose) (HPC) 101 % of control | dose: 200.0 mg/kg/injection, schedule: Q01DX001 (ip), vehicle: Klucel (hydroxypropylcellulose) (HPC) 107 % of control

CC(C)(CCCOc1ccccc1)NC(=O)c1ccccc1
inactive: [1] 100 % of control | [2] 100 % of control | [3] 103 % of control | [10] 102 % of control

CCS(=O)(=O)c1ccc(C)cc1
inactive: [2] 95 % of control | dose: 100.0 mg/kg/injection, schedule: Q01DX009 (ip), vehicle: saline 89 % of control | dose: 100.0 mg/kg/injection, schedule: Q04DX003 (ip), vehicle: saline 109 % of control | [3] 93 % of control | dose: 200.0 mg/kg/injection, schedule: Q01DX009 (ip), vehicle: saline 95 % of control | dose: 200.0 mg/kg/injection, schedule: Q04DX003 (ip), vehicle: saline 95 % of control | [10] 96 % of control | dose: 400.0 mg/kg/injection, schedule: Q01DX009 (ip), vehicle: saline 87 % of control | dose: 400.0 mg/kg/injection, schedule: Q04DX003 (ip), vehicle: saline 98 % of control

CC(=O)Nc1ccc(Oc2ccc(NC(C)=O)cc2)cc1
inactive: [14] 90 % of control | dose: 50.0 mg/kg/injection, schedule: Q04DX002 (ip), vehicle: saline 97 % of control | dose: 100.0 mg/kg/injection, schedule: Q04DX002 (ip), vehicle: saline 117 % of control

CC(C)CC(C)NCCOC(=O)c1ccc(N)cc1 (stereo unspecified)
inactive: dose: 9.38 mg/kg/injection, schedule: Q01DX001 (ip), vehicle: other 104 % of control | dose: 18.75 mg/kg/injection, schedule: Q01DX001 (ip), vehicle: other 96 % of control | dose: 37.5 mg/kg/injection, schedule: Q01DX001 (ip), vehicle: other 106 % of control | dose: 75.0 mg/kg/injection, schedule: Q01DX001 (ip), vehicle: carboxymethylcellulose (CMC) 96 % of control

CC(=O)Nc1nc(Cl)c([N+](=O)[O-])c(SCc2ccccc2)n1
inactive: dose: 25.0 mg/kg/injection, schedule: Q01DX009 (ip), vehicle: saline with Tween-80 90 % of control | dose: 50.0 mg/kg/injection, schedule: Q01DX009 (ip), vehicle: saline with Tween-80 93 % of control and 97 % of control | [15] 101 % of control and 104 % of control | [11] 87 % of control | [12] 98 % of control

O=[N+]([O-])c1cc(Cl)cc2c1-c1c(Cl)cc(Cl)cc1C2Br (stereo unspecified)
inactive: [4] 101 % of control | [5] 98 % of control | [6] 104 % of control | [7] 96 % of control | [8] 103 % of control | [9] 93 % of control

COc1ccc(/C=C/C(=O)c2ccc(OC)cc2)cc1
inactive: [4] 100 % of control | [5] 102 % of control | [6] 94 % of control | [7] 98 % of control | [8] 92 % of control | [9] 101 % of control

C(=Nc1ccccc1)c1ccc2c(c1)COO2
inactive: [5] 101 % of control | [7] 101 % of control | [9] 101 % of control

BrC12CC3CC(CC(C3)C1)C2
inactive: [11] 98 % of control | [12] 102 % of control | [13] 98 % of control

Nc1ccccc1C(=O)NO
inactive: [2] 98 % of control | [3] 97 % of control | [10] 97 % of control

COC(=O)C(C)NC(=O)C(C)NC(=O)c1cnc2ccccc2n1 (stereo unspecified)
inactive: dose: 100.0 mg/kg/injection, schedule: Q01DX001 (ip), vehicle: carboxymethylcellulose (CMC) 89 % of control | dose: 200.0 mg/kg/injection, schedule: Q01DX001 (ip), vehicle: carboxymethylcellulose (CMC) 93 % of control

CCC[CH2][Sn]([C]#[C][Sn]([CH2]CCC)([CH2]CCC)[CH2]CCC)([CH2]CCC)[CH2]CCC
inactive: dose: 0.39 mg/kg/injection, schedule: Q01DX009 (ip), vehicle: saline 94 % of control | dose: 0.78 mg/kg/injection, schedule: Q01DX009 (ip), vehicle: saline 94 % of control | dose: 1.56 mg/kg/injection, schedule: Q01DX009 (ip), vehicle: saline 97 % of control and 102 % of control | dose: 6.25 mg/kg/injection, schedule: Q01DX009 (ip), vehicle: Klucel (hydroxypropylcellulose) (HPC) 88 % of control | [14] 94 % of control

CCOC(=O)CNC(=O)Nc1cc(OC)ccc1OC
inactive: [15] 96 % of control | dose: 200.0 mg/kg/injection, schedule: Q01DX009 (ip), vehicle: saline with Tween-80 95 % of control | dose: 400.0 mg/kg/injection, schedule: Q01DX009 (ip), vehicle: saline with Tween-80 100 % of control

Nc1cnc([S][Sn]([c]2ccccc2)([c]2ccccc2)[c]2ccccc2)s1
inactive: dose: 6.25 mg/kg/injection, schedule: Q04DX002 (ip), vehicle: saline with Tween-80 101 % of control | dose: 12.5 mg/kg/injection, schedule: Q04DX002 (ip), vehicle: saline with Tween-80 96 % of control | dose: 25.0 mg/kg/injection, schedule: Q04DX002 (ip), vehicle: saline with Tween-80 104 % of control

O=C(Nc1ccccc1C(=O)N/N=C/c1ccc(Cl)cc1Cl)c1ccccc1Cl
inactive: [4] 90 % of control | [6] 97 % of control | [8] 86 % of control

CC(=O)OCC(COC(C)=O)OC(C)=O
inactive: dose: 100.0 mg/kg/injection, schedule: Q04DX002 (ip), vehicle: other 98 % of control | dose: 200.0 mg/kg/injection, schedule: Q04DX002 (ip), vehicle: other 98 % of control | dose: 400.0 mg/kg/injection, schedule: Q04DX002 (ip), vehicle: other 103 % of control

COC(=O)NCCc1cc(OC)c(OC)cc1Br
inactive: [11] 86 % of control | [12] 91 % of control | [13] 91 % of control
